Like-named read-outs stand apart in the source and are kept apart here.
Target: T1, Human Factor D (Homo sapiens, UniProt P00746)
T1 construct: purified from human serum; purchased Complement Technology, Inc; host or cells: human serum (natural protein, not recombinant)
Test: Human Factor D Assay
Type: biochemical
Conditions: Factor D 80 nM, substrate Z-L-Lys-SBzl, read-out: IC50
Experimental: Human Factor D (purified from human serum, Complement Technology, Inc.) at 80 nM final concentration is incubated with test compound at various concentrations for 5 minutes at room temperature in 50 mM Tris, 1M NaCl, pH 7.5. A synthetic substrate Z-L-Lys-SBzl and DTNB (Ellman's reagent) are added to final concentrations of 100 μM each. Absorbance at 405 nm (A405) is recorded at 30 second intervals for 30 minutes using a microplate spectrophotometer. IC50 values are calculated by nonlinear regression of complement Factor D reaction rates as a function of test compound concentration.

T1 sequence (P00746 26-253): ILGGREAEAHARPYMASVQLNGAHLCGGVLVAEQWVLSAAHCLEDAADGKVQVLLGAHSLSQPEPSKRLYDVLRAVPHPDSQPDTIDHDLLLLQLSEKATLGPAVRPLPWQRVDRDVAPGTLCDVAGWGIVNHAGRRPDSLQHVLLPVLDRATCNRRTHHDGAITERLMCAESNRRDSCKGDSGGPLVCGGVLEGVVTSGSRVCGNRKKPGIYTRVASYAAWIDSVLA

| SMILES | IC50 (Table 1) [nM] | IC50 (Table 2) [nM] |
| --- | --- | --- |
| CC(=O)c1cn(CC(=O)N2C[C@H](F)C[C@H]2C(=O)Nc2cccc(-c3ccccc3Cl)c2F)c2ccc(NC(=O)C3CCC(F)(F)C3)cc12 (stereo partly drawn) [Compound 35, (2S,4R)-1-(2-(3-acetyl-5-(3,3-difluorocyclopentane-carboxamido)-1H-indol-1-yl)acetyl)-N-(2′-chloro-2-fluorobiphenyl-3-yl)-4-fluoropyrrolidine-2-carboxamide] | < 1000 | – |
| CC(=O)c1cn(CC(=O)N2C[C@H](F)C[C@H]2C(=O)Nc2cccc(-c3ccccc3Cl)c2F)c2ccc(NC(=O)CC(F)(F)F)cc12 [Compound 36, (2S,4R)-1-(2-(3-acetyl-5-(3,3,3-trifluoropropanamido)-1H-indol-1-yl)acetyl)-N-(2′-chloro-2-fluorobiphenyl-3-yl)-4-fluoropyrrolidine-2-carboxamide] | < 1000 | – |
| CC(=O)c1cn(CC(=O)N2C[C@H](F)C[C@H]2C(=O)NCc2cccc(Cl)c2F)c2cc(NC(=O)OC(C)(C)C)ccc12 [Compound 37, tert-butyl 3-acetyl-1-(2-((2S,4R)-2-(3-chloro-2-fluorobenzylcarbamoyl)-4-fluoropyrrolidin-1-yl)-2-oxoethyl)-1H-indol-6-ylcarbamate] | < 1000 | – |
| CC(=O)c1cn(CC(=O)N2C[C@H](F)C[C@H]2C(=O)NCc2cccc(Cl)c2F)c2ccc(C(=O)N3CC=C(B(O)O)CC3)cc12 [Compound 38, 1-(3-acetyl-1-(2-((2S,4R)-2-(3-chloro-2-fluorobenzylcarbamoyl)-4-fluoropyrrolidin-1-yl)-2-oxoethyl)-1H-indole-5-carbonyl)-1,2,3,6-tetrahydropyridin-4-ylboronic acid] | < 1000 | – |
| CC(=O)c1cn(CC(=O)N2C[C@H](F)C[C@H]2C(=O)NCc2cccc(Cl)c2F)c2ccc(C(=O)N3CC4CCC3C4)cc12 (stereo partly drawn) [Compound 39, (2S,4R)-1-(2-(3-acetyl-5-(2-azabicyclo[2.2.1]heptane-2-carbonyl)-1H-indol-1-yl)acetyl)-N-(3-chloro-2-fluorobenzyl)-4-fluoropyrrolidine-2-carboxamide] | < 1000 | – |
| CC(=O)c1cn(CC(=O)N2C[C@H](F)C[C@H]2C(=O)NCc2cccc(Cl)c2F)c2ccc(C(=O)N3CCCC(F)(F)C3)cc12 [Compound 40, (2S,4R)-1-(2-(3-acetyl-5-(3,3-difluoropiperidine-1-carbonyl)-1H-indol-1-yl)acetyl)-N-(3-chloro-2-fluorobenzyl)-4-fluoropyrrolidine-2-carboxamide] | < 1000 | – |
| CC(=O)c1cn(CC(=O)N2C[C@H](F)C[C@H]2C(=O)NCc2cccc(Cl)c2F)c2ccc(C(=O)NC3CC3)cc12 [Compound 41, 3-acetyl-1-(2-((2S,4R)-2-(3-chloro-2-fluorobenzylcarbamoyl)-4-fluoropyrrolidin-1-yl)-2-oxoethyl)-N-cyclopropyl-1H-indole-5-carboxamide] | < 1000 | – |
| CC(=O)c1cn(CC(=O)N2C[C@H](F)C[C@H]2C(=O)NCc2cccc(Cl)c2F)c2cc(C(=O)N3CCC(CN)C3)ccc12 (stereo partly drawn) [Compound 42, (2S,4R)-1-(2-(3-acetyl-6-(3-(aminomethyl)-pyrrolidine-1-carbonyl)-1H-indol-1-yl)acetyl)-N-(3-chloro-2-fluorobenzyl)-4-fluoropyrrolidine-2-carboxamide] | < 1000 | – |
| CC(=O)c1cn(CC(=O)N2C[C@H](F)C[C@H]2C(=O)NCc2cccc(Cl)c2F)c2cc(C(=O)NS(C)(=O)=O)ccc12 [Compound 43] | < 1000 | – |
| CC(=O)c1cn(CC(=O)N2C[C@H](F)C[C@H]2C(=O)NCc2cccc(Cl)c2F)c2cc(C(=O)N[C@H]3CCN(C(=O)OC(C)(C)C)C3)ccc12 [Compound 44, (S)-tert-butyl 3-(3-acetyl-1-(2-((2S,4R)-2-(3-chloro-2-fluorobenzyl-carbamoyl)-4-fluoropyrrolidin-1-yl)-2-oxoethyl)-1H-indole-6-carboxamido) pyrrolidine-1-carboxylate] | < 1000 | – |
| CC(=O)c1cn(CC(=O)N2C[C@H](F)C[C@H]2C(=O)NCc2cccc(Cl)c2F)c2cc(C(=O)N[C@H]3CCNC3)ccc12 [Compound 45, 3-acetyl-1-(2-((2S,4R)-2-(3-chloro-2-fluorobenzyl-carbamoyl)-4-fluoropyrrolidin-1-yl)-2-oxoethyl)-N-((S)-pyrrolidin-3-yl)-1H-indole-6-carboxamide] | < 1000 | – |
| CC(=O)c1cn(CC(=O)N2C[C@H](F)C[C@H]2C(=O)NCc2cccc(Cl)c2F)c2cc(C(=O)N[C@H]3CCN(C(C)=O)C3)ccc12 [Compound 46, 3-acetyl-N-((S)-1-acetylpyrrolidin-3-yl)-1-(2-((2S,4R)-2-(3-chloro-2-fluorobenzylcarbamoyl)-4-fluoropyrrolidin-1-yl)-2-oxoethyl)-1H-indole-6-carboxamide] | < 1000 | – |
| CC(=O)c1cn(CC(=O)N2C[C@H](F)C[C@H]2C(=O)NCc2cccc(Cl)c2F)c2cc(C(=O)NS(=O)(=O)C3CC3)ccc12 [Compound 48, 3-acetyl-1-(2-((2S,4R)-2-(3-chloro-2-fluorobenzylcarbamoyl)-4-fluoropyrrolidin-1-yl)-2-oxoethyl)-N-(cyclopropylsulfonyl)-1H-indole-6-carboxamide] | < 1000 | – |
| CC(=O)c1cn(CC(=O)N2C[C@H](F)C[C@H]2C(=O)NCc2cccc(Cl)c2F)c2cc(C(=O)NCC3CCNC3)ccc12 (stereo partly drawn) [Compound 49, 3-acetyl-1-(2-((2S,4R)-2-(3-chloro-2-fluorobenzylcarbamoyl)-4-fluoropyrrolildin-1-yl)-2-oxoethyl)-N-(pyrrolidin-3-ylmethyl)-1H-indole-6-carboxamide] | < 1000 | – |
| CC(=O)c1cn(CC(=O)N2C[C@H](F)C[C@H]2C(=O)NCc2cccc(Cl)c2F)c2cc(C(=O)NCC3CCN(C(=O)OC(C)(C)C)C3)ccc12 (stereo partly drawn) [Compound 50, tert-butyl 3-((3-acetyl-1-(2-((2S,4R)-2-(3-chloro-2-fluorobenzylcarbamoyl)-4-fluoropyrrolidin-1-yl)-2-oxoethyl)-1H-indole-6-carboxamido)methyl) pyrrolidine-1-carboxylate] | < 1000 | – |
| COC(=O)C1CCN(C(=O)c2ccc3c(C(C)=O)cn(CC(=O)N4C[C@H](F)C[C@H]4C(=O)NCc4cccc(Cl)c4F)c3c2)C1 (stereo partly drawn) [Compound 51, methyl 1-(3-acetyl-1-(2-((2S,4R)-2-(3-chloro-2-fluorobenzylcarbamoyl)-4-fluoropyrrolidin-1-yl)-2-oxoethyl)-1H-indole-6-carbonyl)pyrrolidine-3-carboxylate] | < 1000 | – |
| CC(=O)c1cn(CC(=O)N2C[C@H](F)C[C@H]2C(=O)NCc2cccc(Cl)c2F)c2cc(C(=O)N3CCC(C(=O)O)C3)ccc12 (stereo partly drawn) [Compound 52, 1-(3-acetyl-1-(2-((2S,4R)-2-(3-chloro-2-fluorobenzylcarbamoyl)-4-fluoropyrrolidin-1-yl)-2-oxoethyl)-1H-indole-6-carbonyl)pyrrolidine-3-carboxylic acid] | < 1000 | – |
| CC(=O)c1cn(CC(=O)N2C[C@H](F)C[C@H]2C(=O)NCc2cccc(Cl)c2F)c2cc(C(=O)NS(=O)(=O)c3ccccc3)ccc12 [Compound 53, 3-acetyl-1-(2-((2S,4R)-2-(3-chloro-2-fluorobenzylcarbamoyl)-4-fluoropyrrolidin-1-yl)-2-oxoethyl)-N-(phenylsulfonyl)-1H-indole-6-carboxamide] | < 1000 | – |
| NC(=O)c1nn(CC(=O)N2C[C@H](F)C[C@H]2C(=O)Nc2cccc(-c3ccccc3Cl)c2F)c2cc(C(=O)NS(=O)(=O)C3CC3)ccc12 [Compound 54] | < 1000 | – |
| CC(C)(C)C(=O)Nc1nc2c(s1)c(C(N)=O)nn2CC(=O)N1C[C@H](F)C[C@H]1C(=O)Nc1cccc(-c2ccccc2Cl)c1F [Compound 55, 1-(2-((2S,4R)-2-(2′-chloro-2-fluorobiphenyl-3-ylcarbamoyl)-4-fluoropyrrolidin-1-yl)-2-oxoethyl)-5-pivalamido-1H-pyrazolo[3,4-d]thiazole-3-carboxamide] | – | < 1000 |
| CC(C)(C)C(=O)Nc1nc2c(s1)c(C(N)=O)nn2CC(=O)N1C[C@H](F)C[C@H]1C(=O)NCc1cccc(Cl)c1F [Compound 56, 1-(2-((2S,4R)-2-(3-chloro-2-fluorobenzylcarbamoyl)-4-fluoropyrrolidin-1-yl)-2-oxoethyl)-5-pivalamido-1H-pyrazolo[3,4-d]thiazole-3-carboxamide] | – | < 1000 |
| NC(=O)c1nn(CC(=O)N2C[C@H](F)C[C@H]2C(=O)Nc2cccc(-c3ccccc3Cl)c2F)c2cc(C(=O)NC3CC3)sc12 [Compound 57, 1-(2-((2S,4R)-2-(2′-chloro-2-fluorobiphenyl-3-ylcarbamoyl)-4-fluoropyrrolidin-1-yl)-2-oxoethyl)-N5-cyclopropyl-1H-thieno[3,2-c]pyrazole-3,5-dicarboxamide] | – | < 1000 |
| CNC(=O)c1cc2c(s1)c(C(N)=O)nn2CC(=O)N1C[C@H](F)C[C@H]1C(=O)Nc1cccc(-c2ccccc2Cl)c1F [Compound 58] | – | < 1000 |
| NC(=O)c1nn(CC(=O)N2C[C@H](F)C[C@H]2C(=O)Nc2cccc(-c3ccccc3Cl)c2F)c2cc(C(=O)N3CCOCC3)sc12 [Compound 59, 1-(2-((2S,4R)-2-(2′-chloro-2-fluorobiphenyl-3-ylcarbamoyl)-4-fluoropyrrolidin-1-yl)-2-oxoethyl)-5-(morpholine-4-carbonyl)-1H-thieno[3,2-c]pyrazole-3-carboxamide] | – | < 1000 |
| NC(=O)c1nn(CC(=O)N2C[C@H](F)C[C@H]2C(=O)Nc2cccc(-c3ccccc3Cl)c2F)c2cc(C(=O)N3CCCC3)sc12 [Compound 60, 1-(2-((2S,4R)-2-(2′-chloro-2-fluorobiphenyl-3-ylcarbamoyl)-4-fluoropyrrolidin-1-yl)-2-oxoethyl)-5-(pyrrolidine-1-carbonyl)-1H-thieno[3,2-c]pyrazole-3-carboxamide] | – | < 1000 |

Reference: US10138225B2 (Achillion Pharmaceuticals, Inc., priority 2015, dated 2018)
